As a reminder, the IC50 is the concentration that inhibits the measured activity by half. Read a low IC50 as inhibition by little substance.

These results are taken from US9101616B2, “Aryl substituted carboxamide derivatives as calcium or sodium channel blockers” (RaQualia Pharma Inc., priority 2009, dated 2015).

Assay [1] deals with T1, human T-type channel alpha-1H (CaV 3.2) (Homo sapiens, UniProt O95180).
T1 construct: expressed in transfected cells; host or cells: HEK 293
Put plainly: Ca2+ Influx Assay (cell-based fluorescent, FDSS). The note with it: HEK 293 cells expressing human CaV 3.2. In short, it runs like this: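 HEK293 cells stably expressing human CaV3.2, loaded with Fluo-4-AM 1 h at 37 °C. Compound added 4.5 min before potassium ionophore, then high-K+ depolarization with fluorescence monitored on FDSS. IC50 from 7-point dose-response, duplicate wells.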

Another assay relates to rats. The note with it: rat, in vivo; cited from earlier work.
The test system of the next assay is chronic pain. To be noted: in vivo; cited from earlier work.

Molecules are shown by their SMILES.

T1 sequence (O95180 whole entry): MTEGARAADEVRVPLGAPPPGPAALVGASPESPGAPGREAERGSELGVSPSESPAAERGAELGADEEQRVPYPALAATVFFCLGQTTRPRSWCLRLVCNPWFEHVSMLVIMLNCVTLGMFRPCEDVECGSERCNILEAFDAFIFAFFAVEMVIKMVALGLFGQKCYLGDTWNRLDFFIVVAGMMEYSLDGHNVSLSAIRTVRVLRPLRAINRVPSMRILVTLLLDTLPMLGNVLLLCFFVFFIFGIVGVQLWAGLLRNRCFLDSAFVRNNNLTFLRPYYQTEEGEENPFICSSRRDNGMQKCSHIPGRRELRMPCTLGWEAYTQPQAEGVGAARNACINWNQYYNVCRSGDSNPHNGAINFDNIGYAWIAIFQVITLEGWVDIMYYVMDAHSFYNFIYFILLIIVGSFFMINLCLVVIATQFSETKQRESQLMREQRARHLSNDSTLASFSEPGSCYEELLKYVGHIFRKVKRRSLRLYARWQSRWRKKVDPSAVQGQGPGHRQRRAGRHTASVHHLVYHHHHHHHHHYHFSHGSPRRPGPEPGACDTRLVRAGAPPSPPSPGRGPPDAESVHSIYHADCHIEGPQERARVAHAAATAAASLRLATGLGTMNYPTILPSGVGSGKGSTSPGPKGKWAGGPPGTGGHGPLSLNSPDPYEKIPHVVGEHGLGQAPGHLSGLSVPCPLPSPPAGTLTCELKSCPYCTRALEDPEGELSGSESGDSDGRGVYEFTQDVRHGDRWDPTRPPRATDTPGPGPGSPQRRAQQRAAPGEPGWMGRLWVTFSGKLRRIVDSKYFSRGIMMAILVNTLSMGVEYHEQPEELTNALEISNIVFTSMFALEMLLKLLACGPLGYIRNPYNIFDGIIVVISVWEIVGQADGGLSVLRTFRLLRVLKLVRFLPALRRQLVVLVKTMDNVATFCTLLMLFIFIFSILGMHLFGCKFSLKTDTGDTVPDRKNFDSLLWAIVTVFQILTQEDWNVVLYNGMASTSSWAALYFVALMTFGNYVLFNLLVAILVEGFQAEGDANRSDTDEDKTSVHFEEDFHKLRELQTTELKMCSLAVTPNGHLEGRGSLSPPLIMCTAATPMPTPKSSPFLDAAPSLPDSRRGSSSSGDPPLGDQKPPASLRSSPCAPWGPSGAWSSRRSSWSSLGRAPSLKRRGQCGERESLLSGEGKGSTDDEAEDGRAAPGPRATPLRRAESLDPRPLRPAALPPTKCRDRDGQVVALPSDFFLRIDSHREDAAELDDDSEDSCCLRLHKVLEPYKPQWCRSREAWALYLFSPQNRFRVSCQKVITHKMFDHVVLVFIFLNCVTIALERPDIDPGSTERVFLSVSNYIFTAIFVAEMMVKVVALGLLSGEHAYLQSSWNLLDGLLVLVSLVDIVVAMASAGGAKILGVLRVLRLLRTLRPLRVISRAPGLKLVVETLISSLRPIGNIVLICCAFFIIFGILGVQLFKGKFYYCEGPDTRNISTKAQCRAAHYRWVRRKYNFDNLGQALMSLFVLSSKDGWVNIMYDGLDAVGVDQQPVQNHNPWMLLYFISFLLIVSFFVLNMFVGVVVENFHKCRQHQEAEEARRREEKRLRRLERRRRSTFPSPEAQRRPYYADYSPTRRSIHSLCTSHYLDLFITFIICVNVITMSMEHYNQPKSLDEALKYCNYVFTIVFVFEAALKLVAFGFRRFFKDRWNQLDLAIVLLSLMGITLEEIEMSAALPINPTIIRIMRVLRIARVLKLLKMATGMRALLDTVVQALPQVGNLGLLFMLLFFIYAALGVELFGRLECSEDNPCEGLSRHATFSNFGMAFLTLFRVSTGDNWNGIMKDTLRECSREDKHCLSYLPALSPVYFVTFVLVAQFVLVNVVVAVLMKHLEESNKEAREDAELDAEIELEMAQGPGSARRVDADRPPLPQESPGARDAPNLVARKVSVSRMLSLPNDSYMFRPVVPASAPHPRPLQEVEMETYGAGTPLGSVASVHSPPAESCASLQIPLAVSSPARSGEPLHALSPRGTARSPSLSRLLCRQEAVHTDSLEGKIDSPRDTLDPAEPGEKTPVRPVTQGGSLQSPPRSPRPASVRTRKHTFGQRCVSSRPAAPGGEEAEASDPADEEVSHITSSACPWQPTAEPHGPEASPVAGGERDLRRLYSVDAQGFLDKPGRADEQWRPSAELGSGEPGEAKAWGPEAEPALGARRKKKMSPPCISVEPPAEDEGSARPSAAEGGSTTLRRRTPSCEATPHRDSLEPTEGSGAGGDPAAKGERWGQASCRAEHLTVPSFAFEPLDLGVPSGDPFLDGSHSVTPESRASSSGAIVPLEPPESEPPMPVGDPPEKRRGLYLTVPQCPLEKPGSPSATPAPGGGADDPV

In assay [1], `C[C@@H](NC(=O)C1CC1c1cc2ccccc2cn1)c1ccc(OCC(F)(F)F)cn1` (stereo in doubt) [Example 172, trans-2-(isoquinolin-3-yl)-N-((R)-1-(5-(2,2,2-trifluoroethoxy)pyridin-2-yl)ethyl)cyclopropanecarboxamide] registered an IC50 of at most 300 nM.

For the compound `C[C@@H](NC(=O)C1CC1c1cc2cc(F)ccc2[nH]1)c1ccc(OCC2CC2)cn1` (stereo in doubt) [Example 181, trans-N-((R)-1-(5-(cyclopropylmethoxy)pyridin-2-yl)ethyl)-2-(5-fluoro-1H-indol-2-yl)cyclopropanecarboxamide], in assay [1], the IC50 was at most 300 nM.

As to `C[C@@H](NC(=O)C1CC1Cn1ccc2ccccc21)c1ccc(OCC(F)(F)F)cn1` (stereo in doubt) [Example 182, trans-2-((1H-indol-1-yl)methyl)-N-((R)-1-(5-(2,2,2-trifluoroethoxy)pyridin-2-yl)ethyl)cyclopropanecarboxamide], in assay [1], the IC50 was at most 300 nM.

Regarding `C[C@@H](NC(=O)C1CC1c1ccc2ccn(CC3(C)COC3)c2c1)c1cnc(OCC(F)(F)F)cn1` (stereo in doubt) [Example 190, trans-2-(1-((3-methyloxetan-3-yl)methyl)-1H-indol-6-yl)-N-((R)-1-(5-(2,2,2-trifluoro-ethoxy)pyrazin-2-yl)ethyl)cyclopropanecarboxamide], the IC50 in assay [1] was at most 300 nM.

With `C[C@@H](NC(=O)C1CC1c1cc(F)cc(F)c1)c1cnc(OCC(F)(F)F)cn1` (stereo in doubt) [Example 194, trans-2-(3,5-difluorophenyl)-N-((R)-1-(5-(2,2,2-trifluoroethoxy)pyrazin-2-yl)ethyl)cyclopropanecarboxamide], in assay [1], the IC50 is at most 300 nM.

In assay [1], `COc1ccc(C2CC2C(=O)N[C@H](C)c2ccc(OCC(F)(F)F)cn2)cc1C` (stereo in doubt) [Example 202, trans-2-(4-methoxy-3-methylphenyl)-N-((R)-1-(5-(2,2,2-trifluoroethoxy)pyridin-2-yl)ethyl)cyclopropanecarboxamide] returned an IC50 of at most 300 nM.

In turn, `C[C@@H](NC(=O)C1CC1c1ccc2ccccc2n1)c1ccc(OCC(F)(F)F)nc1` (stereo in doubt) [Example 205, trans-2-(quinolin-2-yl)-N-((R)-1-(6-(2,2,2-trifluoroethoxy)pyridin-3-yl)ethyl)cyclopropanecarboxamide] displayed an IC50 in assay [1] of at most 300 nM.

`C[C@@H](NC(=O)C1CC1c1ccc2cccnc2c1)c1ccc(OCC(F)(F)F)nc1` (stereo in doubt) [Example 206, trans-2-(quinolin-7-yl)-N-((R)-1-(6-(2,2,2-trifluoroethoxy)pyridin-3-yl)ethyl)cyclopropanecarboxamide] showed an IC50 in assay [1] of at most 300 nM.

In turn, `C[C@@H](NC(=O)C1CC1c1ccc2ncccc2c1)c1ccc(OCC(F)(F)F)nc1` (stereo in doubt) [Example 207, trans-2-(quinolin-6-yl)-N-((R)-1-(6-(2,2,2-trifluoroethoxy)pyridin-3-yl)ethyl)cyclopropanecarboxamide] came in with an IC50 in assay [1] of at most 300 nM.

In turn, `C[C@@H](NC(=O)C1CC1c1ccc2ccn(C)c2c1)c1ccc(OCC(F)(F)F)nc1` (stereo in doubt) [Example 208, trans-2-(1-methyl-1H-indol-6-yl)-N-((R)-1-(6-(2,2,2-trifluoroethoxy)pyridin-3-yl)ethyl)cyclopropanecarboxamide] showed an IC50 in assay [1] of at most 300 nM.

Compound `C[C@@H](NC(=O)C1CC1c1cnc2ccccc2c1)c1ccc(OCC(F)(F)F)nc1` (stereo in doubt) [Example 211, trans-2-(quinolin-3-yl)-N-((R)-1-(6-(2,2,2-trifluoroethoxy)pyridin-3-yl)ethyl)cyclopropanecarboxamide] registered an IC50 in assay [1] of at most 300 nM.

Turning to `C[C@@H](NC(=O)C1CC1c1cccc2cc[nH]c12)c1ccc(OCC(F)(F)F)nc1` (stereo in doubt) [Example 212, trans-2-(1H-indol-7-yl)-N-((R)-1-(6-(2,2,2-trifluoroethoxy)pyridin-3-yl)ethyl)cyclopropanecarboxamide], the IC50 in assay [1] was at most 300 nM.

In turn, `C[C@@H](NC(=O)C1CC1c1ccc2ccn(CC3(C)COC3)c2c1)c1ccc(OCC(F)(F)F)nc1` (stereo in doubt) [Example 213, trans-2-(1-((3-methyloxetan-3-yl)methyl)-1H-indol-6-yl)-N-((R)-1-(6-(2,2,2-trifluoro-ethoxy)pyridin-3-yl)ethyl)cyclopropanecarboxamide] registered an IC50 in assay [1] of at most 300 nM.

In the case of `C[C@@H](NC(=O)[C@H]1C[C@@H]1c1cccc(OCc2ccccc2)c1)c1ccc(OCC(F)(F)F)cn1` (stereo in doubt) [Example 240, (1S*,2S*)-2-(3-(benzyloxy)phenyl)-N-((R)-1-(5-(2,2,2-trifluoroethoxy)pyridin-2-yl)ethyl)cyclopropanecarboxamide], in assay [1], the IC50 was at most 300 nM.

In turn, `C[C@@H](NC(=O)C1CC1c1nc2ccccc2n1C)c1ccc(OCC(F)(F)F)cn1` (stereo in doubt) [Example 243, trans-2-(1-methyl-1H-benzo[d]imidazol-2-yl)-N-((R)-1-(5-(2,2,2-trifluoroethoxy)pyridin-2-yl)ethyl)cyclopropanecarboxamide] returned an IC50 in assay [1] of at most 300 nM.

In the case of `C[C@@H](NC(=O)C1CC1c1nc2ccccc2n1C)c1cnc(OCC(F)(F)F)cn1` (stereo in doubt) [Example 244, trans-2-(1-methyl-1H-benzo[d]imidazol-2-yl)-N-((R)-1-(5-(2,2,2-trifluoroethoxy)pyrazin-2-yl)ethyl)cyclopropanecarboxamide], the IC50 in assay [1] is at most 300 nM.

As for `C[C@@H](NC(=O)C1CC1c1nc2ccccc2n1C)c1ccc(OCC(F)(F)F)nc1` (stereo in doubt) [Example 245, trans-2-(1-methyl-1H-benzo[d]imidazol-2-yl)-N-((R)-1-(6-(2,2,2-trifluoroethoxy)pyridin-3-yl)ethyl)cyclopropanecarboxamide], the IC50 in assay [1] was at most 300 nM.

In assay [1], `C[C@H](NC(=O)[C@@H]1C[C@H]1c1cccc(OCc2ccccc2)c1)c1ccc(OCC(F)(F)F)cn1` (stereo in doubt) [Example 346, (1R*,2R*)-2-(3-(benzyloxy)phenyl)-N-((S)-1-(5-(2,2,2-trifluoroethoxy)pyridin-2-yl)ethyl)cyclopropanecarboxamide] gave an IC50 of at most 300 nM.

As to `C[C@@H](NC(=O)COc1ccc(C(F)(F)F)cc1)c1ccc(OCC(F)(F)F)cn1` [Example 3, (R)-N-(1-(5-(2,2,2-trifluoroethoxy)pyridin-2-yl)ethyl)-2-(4-(trifluoromethyl)phenoxy)acetamide], the IC50 in assay [1] was at most 300 nM.

The compound `C[C@@H](NC(=O)CCc1c[nH]c2ccccc12)c1ccc(OCC(F)(F)F)cn1` [Example 33, (R)-3-(1H-indol-3-yl)-N-(1-(5-(2,2,2-trifluoroethoxy)pyridin-2-yl)ethyl)propanamide] came in with an IC50 in assay [1] of at most 300 nM.

Compound `C[C@@H](NC(=O)CCCc1c[nH]c2ccccc12)c1ccc(OCC(F)(F)F)cn1` [Example 57, (R)-4-(1H-indol-3-yl)-N-(1-(5-(2,2,2-trifluoroethoxy)pyridin-2-yl)ethyl)butanamide] had an IC50 in assay [1] of at most 300 nM.

Compound `Cc1cc(OCC(F)(F)F)cnc1[C@@H](C)NC(=O)CCc1c[nH]c2ccccc12` [Example 104, (R)-3-(1H-indol-3-yl)-N-(1-(3-methyl-5-(2,2,2-trifluoroethoxy)pyridin-2-yl)ethyl)propanamide] returned an IC50 in assay [1] of at most 300 nM.

The compound `C[C@@H](NC(=O)C1CC1c1cc(F)cc(F)c1)c1ccc(OCC2CC2)cn1` (stereo partly drawn) [Example 193, trans-N-((R)-1-(5-(cyclopropylmethoxy)pyridin-2-yl)ethyl)-2-(3,5-difluorophenyl) cyclopropanecarboxamide] displayed an IC50 in assay [1] of at most 300 nM.

Take `C[C@@H](NC(=O)C1CC1c1cc2cc(F)ccc2[nH]1)c1ccc(OCC(F)(F)F)nc1` (stereo partly drawn) [Example 210, trans-2-(5-fluoro-1H-indol-2-yl)-N-((R)-1-(6-(2,2,2-trifluoroethoxy)pridin-3-yl)ethyl)cyclopropanecarboxamide]: the IC50 in assay [1] was at most 300 nM.

The compound `C[C@@H](NC(=O)C1CC1c1ccc2cnn(C)c2c1)c1ccc(OCC(F)(F)F)nc1` (stereo partly drawn) [Example 228, trans-2-(1-methyl-1H-indazol-6-yl)-N-((R)-(6-(2,2,2-trifluoroethoxy)pyridin-3-yl)ethyl)cyclopropanecarboxamide] displayed a concentration for half-maximal inhibition (IC50) in assay [1] of at most 300 nM.

In turn, `C[C@@H](NC(=O)C1CC1c1ccc2cnn(C)c2c1)c1cnc(OCC(F)(F)F)cn1` (stereo partly drawn) [Example 229, trans-2-(1-methyl-1H-indazol-6-yl)-N-((R)-1-(5-(2,2,2-trifluoroethoxy)pyrazin-2-yl)ethyl)cyclopropanecarboxemide] showed an IC50 in assay [1] of at most 300 nM.

As for `NC1=N[C@H](O)[C@H]2[C@H]3O[C@]4(O)O[C@@H]([C@@H](O)[C@@]2(N1)[C@@H]4O)[C@]3(O)CO` [TTX, tetrodotoxin], the “effect on mechanical allodynic behavior” value in the assay with rats is listed as “significantly reduces mechanical allodynic behavior”.

With `CCN(CC)CC(=O)Nc1c(C)cccc1C` [lidocaine], the “effect on chronic pain” value in the assay with chronic pain is listed as “effective to treat chronic pain”.
